Assays:
[1] = Compound cytotoxicity, XTT-based colorimetric assay; type: cell-based; conditions: human, uninfected MT2 cells
Outline: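 CC50 from uninfected MT2 cells run under the antiviral-assay protocol without virus. Viability read on day 4 by XTT colorimetric assay.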

[2] = system: recombinant NL4-3 virus (nef section replaced with Renilla luciferase gene) in MT-2 cells; assay: HIV cell culture assay (antiviral activity, luciferase readout); type: cell-based; conditions: MT-2 cells infected for 4-5 days with recombinant NL4-3 luciferase virus
Outline: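 NL4-3 reporter virus carrying Renilla luciferase in place of part of nef, produced in 293T cells, was used to infect MT-2 cells for 4-5 days with serial compound dilutions. Luciferase activity was read with a live-cell substrate; EC50 derived from the median effect equation.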

Cn1nc(NS(C)(=O)=O)c2c(Cl)ccc(-n3c(C(Cc4cc(F)cc(F)c4)NC(=O)Cn4nc(C(F)F)c5c4C(F)(F)[C@@H]4C[C@H]54)nc4ncc(C#N)cc4c3=O)c21 (mixture of isomers) [Example 37.2, N-(1-(3-(4-chloro-1-methyl-3-(methylsulfonamido)-1H-indazol-7-yl)-6-cyano-4-oxo-3,4-dihydropyrido[2,3-d]pyrimidin-2-yl)-2-(3,5-difluorophenyl)ethyl)-2-((3bS,4aR)-3-(difluoromethyl)-5,5-difluoro-3b,4,4a,5-tetrahydro-1H-cyclopropa[3,4]cyclopenta[1,2-c]pyrazol-1-yl)acetamide]
CC50 at 4 days ([1]; Table 1a, day 4, XTT): > 10000 nM
EC50 ([2]; Renilla, NL43, Table 1a): 0.54 nM

O=C(Cn1nc(C(F)F)c2c1C(F)(F)[C@@H]1C[C@H]21)N[C@@H](Cc1cc(F)cc(F)c1)c1nc2ncccc2c(=O)n1-c1ccc2scnc2c1 [Example 10.24]
CC50 at 4 days ([1]; Table 1, day 4, XTT): > 10000 nM
EC50 ([2]; Renilla, NL43, Table 1): 1.7 nM

Cc1cccc2nc([C@H](Cc3cc(F)cc(F)c3)NC(=O)Cn3nc(C(F)F)c4c3C(F)(F)[C@@H]3C[C@H]43)n(-c3ccc(Cl)c4c(NS(C)(=O)=O)nn(C)c34)c(=O)c12 (single isomer, unassigned) [Example 125]
CC50 at 4 days ([1]; Table 1a, day 4, XTT): > 1000 nM
EC50 ([2]; Table 1a): 63.9 nM

CC(C)c1ccc(-c2cc3[nH]ccc3nc2[C@H](Cc2cc(F)cc(F)c2)NC(=O)Cn2nc(C(F)F)c3c2C(F)(F)[C@@H]2C[C@H]32)cn1 [Example 81, 2-((3bS,4aR)-3-(difluoromethyl)-5,5-difluoro-3b,4,4a,5-tetrahydro-1H-cyclopropa[3,4]cyclopenta[1,2-c]pyrazol-1-yl)-N—((S)-2-(3,5-difluorophenyl)-1-(6-(6-isopropylpyridin-3-yl)-1H-pyrrolo[3,2-b]pyridin-5-yl)ethyl)acetamide]
CC50 at 4 days ([1]; Table 1a, day 4, XTT): 10000 nM
EC50 ([2]; Renilla, NL43, Table 1a): 13.6 nM

Cn1nc(NS(C)(=O)=O)c2c(Cl)ccc(-c3cc4scnc4nc3C(Cc3cc(F)cc(F)c3)NC(=O)Cc3c[nH]c4ccc(O)cc34)c21 (stereo not shown) [Example 1.7, N-(1-(6-(4-chloro-1-methyl-3-(methylsulfonamido)-1H-indazol-7-yl)thiazolo[4,5-b]pyridin-5-yl)-2-(3,5-difluorophenyl)ethyl)-2-(5-hydroxy-1H-indol-3-yl)acetamide]
CC50 at 4 days ([1]; Table 1, day 4, XTT): > 100000 nM
EC50 ([2]; Renilla, NL43, Table 1): 11 nM

CS(=O)(=O)NC(=O)c1cc(-c2cc3[nH]ncc3nc2[C@H](Cc2cc(F)cc(F)c2)NC(=O)Cn2nc(C(F)F)c3c2C(F)(F)[C@@H]2C[C@H]32)ccc1F [Example 10.26, 5-(5-((S)-1-(2-((3bS,4aR)-3-(difluoromethyl)-5,5-difluoro-3b,4,4a,5-tetrahydro-1H-cyclopropa[3,4]cyclopenta[1,2-c]pyrazol-1-yl)acetamido)-2-(3,5-difluorophenyl)ethyl)-1H-pyrazolo[4,3-b]pyridin-6-yl)-2-fluoro-N-(methylsulfonyl)benzamide]
CC50 at 4 days ([1]; Table 1, day 4, XTT): > 10000 nM
EC50 ([2]; Renilla, NL43, Table 1): 930 nM

Cn1nc(NS(C)(=O)=O)c2c(Cl)ccc(-n3c([C@H](Cc4cc(F)cc(F)c4)NC(=O)Cn4nc(C(F)F)c5c4C(F)(F)[C@@H]4C[C@H]54)nc4cc(C5CC5)ccc4c3=O)c21 (mixture of isomers) [Example 197, N—((S)-1-(3-(4-chloro-1-methyl-3-(methylsulfonamido)-1H-indazol-7-yl)-7-cyclopropyl-4-oxo-3,4-dihydroquinazolin-2-yl)-2-(3,5-difluorophenyl)ethyl)-2-((3bS,4aR)-3-(difluoromethyl)-5,5-difluoro-3b,4,4a,5-tetrahydro-1H-cyclopropa[3,4]cyclopenta[1,2-c]pyrazol-1-yl)acetamide]
CC50 at 4 days ([1]; Table 1a, day 4, XTT): > 1000 nM
EC50 ([2]; Table 1a): 42.6 nM

CS(=O)(=O)Nc1nn(CC(F)F)c2c(-c3nc4ccccc4nc3[C@H](Cc3cc(F)cc(F)c3)NC(=O)Cn3nc(C(F)F)c4c3C(F)(F)[C@@H]3C[C@H]43)ccc(Cl)c12 [Example 96, N—((S)-1-(3-(4-chloro-1-(2,2-difluoroethyl)-3-(methylsulfonamido)-1H-indazol-7-yl)quinoxalin-2-yl)-2-(3,5-difluorophenyl)ethyl)-2-((3bS,4aR)-3-(difluoromethyl)-5,5-difluoro-3b,4,4a,5-tetrahydro-1H-cyclopropa[3,4]cyclopenta[1,2-c]pyrazol-1-yl)acetamide]
CC50 at 4 days ([1]; Table 1a, day 4, XTT): > 1000 nM
EC50 ([2]; Renilla, NL43, Table 1a): 0.26 nM

Cc1nc2nc(C(Cc3cc(F)cc(F)c3)NC(=O)Cn3nc(C(F)F)c4c3C(F)(F)[C@@H]3C[C@H]43)c(-c3ccc(Cl)c4c(NS(C)(=O)=O)nn(C)c34)cc2s1 (single isomer, unassigned) [Example 2.1]
CC50 at 4 days ([1]; Table 1, day 4, XTT): > 10000 nM
EC50 ([2]; Table 1): 0.1 nM

O=C(Cc1c[nH]c2ccc(O)cc12)N[C@@H](Cc1cc(F)cc(F)c1)c1nc2ccccc2nc1-c1ccc2c(c1)C(=O)NC2 [Example 158, (S)—N-(2-(3,5-difluorophenyl)-1-(3-(3-oxoisoindolin-5-yl)quinoxalin-2-yl)ethyl)-2-(5-hydroxy-1H-indol-3-yl)acetamide]
CC50 at 4 days ([1]; Table 1a, day 4, XTT): > 10000 nM
EC50 ([2]; Renilla, NL43, Table 1a): 102 nM

Cn1nc(NS(C)(=O)=O)c2c(Cl)ccc(-c3cc4[nH]cc(Cl)c4nc3[C@H](Cc3cc(F)cc(F)c3)NC(=O)Cn3nc(C(F)F)c4c3C(F)(F)[C@@H]3C[C@H]43)c21 (single isomer, unassigned) [Example 89]
CC50 at 4 days ([1]; Table 1a, day 4, XTT): > 10000 nM
EC50 ([2]; Renilla, NL43, Table 1a): 0.66 nM

Cn1nc(NS(C)(=O)=O)c2c(Cl)ccc(-n3c([C@H](Cc4cc(F)cc(F)c4)NC(=O)Cn4nc(C(F)F)c5c4C(F)(F)[C@@H]4C[C@H]54)nc4c(Cl)cccc4c3=O)c21 (single isomer, unassigned) [Example 101]
CC50 at 4 days ([1]; Table 1a, day 4, XTT): > 1000 nM
EC50 ([2]; Table 1a): 335 nM

Cn1nc(NS(C)(=O)=O)c2c(Cl)ccc(-n3c([C@H](Cc4cc(F)cc(F)c4)NC(=O)Cn4nc(C(F)F)c5c4C(F)(F)[C@@H]4C[C@H]54)nc4ncccc4c3=O)c21 (single isomer, unassigned) [Example 10.39]
CC50 at 4 days ([1]; Table 1, day 4, XTT): > 10000 nM
EC50 ([2]; Table 1): 6.98 nM

CNC(=O)c1cc(-c2cc3[nH]ncc3nc2[C@H](Cc2cc(F)cc(F)c2)NC(=O)Cn2nc(C(F)F)c3c2C(F)(F)[C@@H]2C[C@H]32)ccc1F [Example 10.7, 5-(5-((S)-1-(2-((3bS,4aR)-3-(difluoromethyl)-5,5-difluoro-3b,4,4a,5-tetrahydro-1H-cyclopropa[3,4]cyclopenta[1,2-c]pyrazol-1-yl)acetamido)-2-(3,5-difluorophenyl)ethyl)-1H-pyrazolo[4,3-b]pyridin-6-yl)-2-fluoro-N-methylbenzamide]
CC50 at 4 days ([1]; Table 1, day 4, XTT): > 10000 nM
EC50 ([2]; Renilla, NL43, Table 1): 51 nM

CC(C)c1ccc(-c2cc3[nH]ccc3nc2[C@@H](Cc2cc(F)cc(F)c2)NC(=O)Cn2nc(C(F)F)c3c2C(F)(F)[C@@H]2C[C@H]32)cn1 [Example 85, 2-((3bS,4aR)-3-(difluoromethyl)-5,5-difluoro-3b,4,4a,5-tetrahydro-1H-cyclopropa[3,4]cyclopenta[1,2-c]pyrazol-1-yl)-N—((R)-2-(3,5-difluorophenyl)-1-(6-(6-isopropylpyridin-3-yl)-1H-pyrrolo[3,2-b]pyridin-5-yl)ethyl)acetamide]
CC50 at 4 days ([1]; Table 1a, day 4, XTT): > 3160 nM
EC50 ([2]; Renilla, NL43, Table 1a): 299 nM

Cn1nc(NS(C)(=O)=O)c2c(Cl)ccc(-c3cc4cc[nH]c4nc3[C@@H](Cc3cc(F)cc(F)c3)NC(=O)Cn3nc(C(F)F)c4c3C(F)(F)[C@@H]3C[C@H]43)c21 (single isomer, unassigned) [Example 87]
CC50 at 4 days ([1]; Table 1a, day 4, XTT): > 10000 nM
EC50 ([2]; Renilla, NL43, Table 1a): 72.4 nM

COc1c(F)cc2c(=O)n(-c3ccc(Cl)c4c(NS(C)(=O)=O)nn(C)c34)c([C@H](Cc3cc(F)cc(F)c3)NC(=O)Cn3nc(C(F)F)c4c3C(F)(F)[C@@H]3C[C@H]43)nc2c1F (mixture of isomers) [Example 114]
CC50 at 4 days ([1]; Table 1a, day 4, XTT): > 1000 nM
EC50 ([2]; Renilla, NL43, Table 1a): 0.071 nM

N#Cc1cccc(-c2cc3[nH]ncc3nc2[C@H](Cc2cc(F)cc(F)c2)NC(=O)Cn2nc(C(F)F)c3c2C(F)(F)[C@@H]2C[C@H]32)c1 [Example 10.2, N—((S)-1-(6-(3-cyanophenyl)-1H-pyrazolo[4,3-b]pyridin-5-yl)-2-(3,5-difluorophenyl)ethyl)-2-((3bS,4aR)-3-(difluoromethyl)-5,5-difluoro-3b,4,4a,5-tetrahydro-1H-cyclopropa[3,4]cyclopenta[1,2-c]pyrazol-1-yl)acetamide]
CC50 at 4 days ([1]; Table 1, day 4, XTT): 9700 nM
EC50 ([2]; Renilla, NL43, Table 1): 460 nM

O=C(Cn1nc(C(F)F)c2c1C(F)(F)[C@@H]1C[C@H]21)N[C@@H](Cc1cc(F)cc(F)c1)c1nc2cn[nH]c2cc1-c1ccc(S(=O)(=O)N2CCSCC2)cc1 [Example 27, 2-((3bS,4aR)-3-(difluoromethyl)-5,5-difluoro-3b,4,4a,5-tetrahydro-1H-cyclopropa[3,4]cyclopenta[1,2-c]pyrazol-1-yl)-N—((S)-2-(3,5-difluorophenyl)-1-(6-(4-(thiomorpholinosulfonyl)phenyl)-1H-pyrazolo[4,3-b]pyridin-5-yl)ethyl)acetamide]
CC50 at 4 days ([1]; Table 1a, day 4, XTT): 5010 nM
EC50 ([2]; Renilla, NL43, Table 1a): 4.94 nM

CC(C)c1ccc(-n2c([C@H](Cc3cc(F)cc(F)c3)NC(=O)Cn3nc(C(F)F)c4c3C(F)(F)[C@@H]3C[C@H]43)nc3cc(C#N)ccc3c2=O)cn1 [Example 163, N—((S)-1-(7-cyano-3-(6-isopropylpyridin-3-yl)-4-oxo-3,4-dihydroquinazolin-2-yl)-2-(3,5-difluorophenyl)ethyl)-2-((3bS,4aR)-3-(difluoromethyl)-5,5-difluoro-3b,4,4a,5-tetrahydro-1H-cyclopropa[3,4]cyclopenta[1,2-c]pyrazol-1-yl)acetamide]
CC50 at 4 days ([1]; Table 1a, day 4, XTT): 3980 nM
EC50 ([2]; Renilla, NL43, Table 1a): 11.9 nM

Source: patent US10954252B1, “Inhibitors of human immunodeficiency virus replication” (ViiV HEALTHCARE UK (NO.5) LIMITED, priority 2017, dated 2021)
